According to patent US20210361600A1, “METHODS FOR INDUCING CHONDROGENESIS” (THE SCRIPPS RESEARCH INSTITUTE, priority 2017, published 2021):
Entries after “also recorded” stand apart in the source; their conditions may differ.

What was measured:
[1] = test system: Rat Medial Meniscal Tear Model; test: Effect of dose frequency of compound A in a rat medial meniscal tear model; format: in vivo, Lewis rats
Protocol: The vehicle was prepared separately, then added to aliquots of compound A powder, and the mixture was then vortexed until it becomes a clear solution. Dosing solutions were prepared for doses of 3.5 and 0.35 μg/kg (100 μM and 10 μM respectively). Dosing volume was set to 30 μL/knee. Dosing solutions were prepared fresh weekly.
Fourteen-week-old male Lewis rats (Charles River, Kingston, N.Y.) were in the weight range of 300-320 g at the start of the study
Rats were sorted based on body weight into 8 study groups of 15 rats. They were surgerized and enrolled in a staggered fashion across one week (20 animals per day for 6 days). Briefly, animals were anesthetized with a ketamine/xylazine cocktail (50 mg/kg Ketaved—Henry Schein, and 5 mg/kg Xyalzine—AniSed respectively) by intraperitoneal injection, administered appropriate analgesics (Flunixin, 5 mg/kg subcutaneous injection), and the surgical site shaved and disinfected. A small incision was made on the medial right hind knee to expose the collateral ligament. The collateral ligament was transected and the joint capsule opened sufficiently to expose the medial meniscus. The meniscus was transected completely, then the skin incision was closed, and pressure applied to the wound to prevent hematoma development. Animals were allowed to recover on a heated blanket and were returned to their home cage. Sham procedures were carried out in a similar fashion, except the medial meniscus was not cut. All surgical procedures were performed aseptically and all procedures were approved by the institute IACUC. Animals were monitored daily for the following week for postoperative care prior to dosing. Any animals with atypical healing (bruising/hematoma) were removed from the study and replaced with spare animals.
Animals were weighed weekly at the time of dosing (8-10 am), and a standardized dose of 30 μl of either vehicle or compound was administered via injection into the intra-articular space according to the regimens outlined above (groups A, B, E and H dosed once weekly, groups C and F dosed every other week, and groups D and G dosed once for the duration of the study). Animals were dosed using a Hamilton syringe with a 27 G needle attached. On study day 28, animals were euthanized, a terminal blood sample collected, and knees were harvested and placed in formalin jars for histology analysis and pathology scoring.
Analysis of the knee joint histology was performed by Bolder BioPATH. A variety of measurements to characterize the lesions were performed to score the joints based on lesion depth, severity, and overall size.

[2] = test system: Rat Medial Meniscal Tear Model; test: Dose range study of compound A in a rat medial meniscal tear model; format: in vivo, Lewis rats
Protocol: The vehicle was prepared separately and then added to aliquots of compound A powder, after which the mixture was vortexed and becomes a clear solution. Dosing solutions were prepared for doses ranging from 30 μM to 0.3 μM. Dosing volume was set to 30 μL/knee. Dosing solutions were prepared fresh for each dose. Dosing solutions were verified at the end of the study. The positive control compound FGF-18 stock was reconstituted in 5 mM Tris, pH 8.0 as per manufacturer's instructions. The FGF-18 stock was further diluted in saline to a final concentration of 0.167 mg/mL. Fresh dilutions were prepared twice a week at the time of injection.
Fourteen-week-old male Lewis rats (Charles River, Kingston, N.Y.) were in the weight range of 285-327 g.
Rats were sorted based on body weight into 8 study groups of 15 rats. They were surgerized and enrolled in a staggered fashion across one week (enroll 20 animals per day for 6 days). Animals were anesthetized with a ketamine/xylazine cocktail (50 mg/kg Ketaved—Henry Schein, and 5 mg/kg Xyalzine AniSed, respectively) by intraperitoneal injection, administered appropriate analgesics (Flunixin, 5 mg/kg subcutaneous injection), and the surgical site shaved and disinfected. A small incision was made on the medial right hind knee to expose the collateral ligament. The collateral ligament was transected and the joint capsule opened sufficiently to expose the medial meniscus. The meniscus was transected completely, then the skin incision was closed, and pressure applied to the wound to prevent hematoma development. Animals were allowed to recover on a heated blanket and were returned to their home cages. Sham procedures were carried out in a similar fashion except the medial meniscus was not cut. All surgical procedures were performed aseptically and all procedures were approved by the IACUC. Animals were monitored daily for the following week for postoperative care prior to dosing. Any animals with atypical healing (bruising/hematoma) were removed from the study and replaced with spare animals. Animals were enrolled into the following groups: […]

[3] = test system: FLNA FC-1 fragment; test: In vitro FLNA binding (competition with biotin-KGN-azide probe); details: 25 μM compound A, 0.5 μM BKA, FC-1 fragment 10 μg/mL, 1 hr
Text: The biological mechanism of kartogenin (KGN) was elucidated through synthesis of a biotin-kartogenin-azide (BKA) affinity probe which was used as a tool to identify the subsequent interaction with FLNA.

[4] = in vivo; details: dog, iv; for AUC(0-t): AUC0-t

COCCc1ccc(NC(=O)c2ccccc2NS(C)(=O)=O)cc1 [Compound A, N-(4-(2-methoxyethyl)phenyl)-2-(methylsulfonamido)benzamide]
combined cartilage degeneration widths with scores from mild to severe ([1]; 10 μM (0.105 μg/knee) IA once every other week, vs vehicle): statistically significant improvement
substantial cartilage degeneration width ([1]; 10 μM (0.105 μg/knee) IA once weekly or once every other week, vs vehicle): improvement
mild-to-severe degeneration widths ([1]; 10 μM (0.105 μg/knee) IA weekly): trend towards a reduction
adverse effects ([1]; IA, any dosing schedule (once weekly, once every other week, once per study), 100 μM or 10 μM): no adverse effects
progression of cartilage degeneration ([1]; dosing once every four weeks): did not demonstrate an effect
width of cartilage lesions where greater than 10% of the cartilage is damaged or lost ([1]; dosing once every other week): significant reduction
most severe cartilage lesions ([1]; not statistically significant): trend towards an improvement
total joint scores without the femur ([2]; 30 μM (0.315 μg/knee) IA once every other week, vs vehicle): significantly improved; also recorded: significant improvement
degree of improvement of total joint score compared with positive control ([2]; 30 μM dose, FGF-18 5 μg/injection twice a week): on par with FGF-18
adverse effects ([2]; IA once every other week, any of the doses tested (30, 10, 3, 1, 0.3 μM)): no adverse effects
ability of the biotin-KGN-azide probe to bind to the FC-1 fragment of FLNA [3]: inhibited
half-life ([4]; both, beagle): 38.4 to 55.8 min
AUC(0-t) ([4]; female, Beagle, 0.125 mg/kg): 131 ng·h/mL
Cmax ([4]; female, Beagle, 0.125 mg/kg): 181 ng/mL
AUC(0-t) ([4]; female, Beagle, 0.6 mg/kg): 1230 ng·h/mL
Cmax ([4]; female, Beagle, 0.6 mg/kg): 1330 ng/mL
AUC(0-t) ([4]; female, Beagle, 1.25 mg/kg): 2150 ng·h/mL
Cmax ([4]; female, Beagle, 1.25 mg/kg): 2460 ng/mL
Vd ([4]; female, beagle): 0.534 to 0.855 L/kg
clearance ([4]; female, beagle): 8.2 to 16.4 mL/min/kg
AUC(0-t) ([4]; female, beagle, 0.125 mg/kg): 178 ng·h/mL
AUC(0-t) ([4]; female, beagle, 0.6 mg/kg): 1200 ng·h/mL
Vd ([4]; male, beagle): 0.44 to 0.692 L/kg
clearance ([4]; male, beagle): 7.25 to 11.4 mL/min/kg
AUC(0-t) ([4]; male, beagle, 0.125 mg/kg): 181 ng·h/mL
Cmax ([4]; male, beagle, 0.125 mg/kg): 308 ng/mL
AUC(0-t) ([4]; male, beagle, 0.6 mg/kg): 1190 ng·h/mL
Cmax ([4]; male, beagle, 0.6 mg/kg): 2100 ng/mL
AUC(0-t) ([4]; male, beagle, 1.25 mg/kg): 2600 ng·h/mL
Cmax ([4]; male, beagle, 1.25 mg/kg): 2580 ng/mL
